Laboratory results published in US9796733B2, “Imidazo-pyrazine derivatives useful as soluble guanylate cyclase activators” (Merck Sharp & Dohme Corp., priority 2014, dated 2017).

Key:
[1] = tested on: Spontaneously hypertensive rats (SHR); test: Acute efficacy in spontaneously hypertensive rats (SHR): telemetry blood pressure lowering after a single oral dose; format: in vivo, rat
Summary of the method: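 Values are the maximum peak fall in systolic pressure after one oral dose (mpk), computed hourly against baseline from a vehicle dose given the day before. Rats were conscious, male, spontaneously hypertensive, with femoral-aortic telemetry recording 30 s every 10 min, 14 days post-surgery.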

sGC α1/β1 heterodimer = target: T1, sGC α1/β1 heterodimer (Homo sapiens, UniProt Q02108+Q02153); test: Cell-based sGC functional assay (CASA assay): cGMP generation in CHO-K1/sGC cells, HTRF detection; details: for Emax: CHO-K1, percent activation relative to standard Compound A in CHO-K1/sGC cells, read-out: % Act.; for EC50: inflection point (IP) of cGMP generation in CHO-K1/sGC cells, 4P fit, activity expressed as percentage of Compound A
T1 construct: expressed in transfected cells; host or cells: CHO-K1 (clone #7, CHO-K1/sGC)
T1 sequence (Q02108 1-690): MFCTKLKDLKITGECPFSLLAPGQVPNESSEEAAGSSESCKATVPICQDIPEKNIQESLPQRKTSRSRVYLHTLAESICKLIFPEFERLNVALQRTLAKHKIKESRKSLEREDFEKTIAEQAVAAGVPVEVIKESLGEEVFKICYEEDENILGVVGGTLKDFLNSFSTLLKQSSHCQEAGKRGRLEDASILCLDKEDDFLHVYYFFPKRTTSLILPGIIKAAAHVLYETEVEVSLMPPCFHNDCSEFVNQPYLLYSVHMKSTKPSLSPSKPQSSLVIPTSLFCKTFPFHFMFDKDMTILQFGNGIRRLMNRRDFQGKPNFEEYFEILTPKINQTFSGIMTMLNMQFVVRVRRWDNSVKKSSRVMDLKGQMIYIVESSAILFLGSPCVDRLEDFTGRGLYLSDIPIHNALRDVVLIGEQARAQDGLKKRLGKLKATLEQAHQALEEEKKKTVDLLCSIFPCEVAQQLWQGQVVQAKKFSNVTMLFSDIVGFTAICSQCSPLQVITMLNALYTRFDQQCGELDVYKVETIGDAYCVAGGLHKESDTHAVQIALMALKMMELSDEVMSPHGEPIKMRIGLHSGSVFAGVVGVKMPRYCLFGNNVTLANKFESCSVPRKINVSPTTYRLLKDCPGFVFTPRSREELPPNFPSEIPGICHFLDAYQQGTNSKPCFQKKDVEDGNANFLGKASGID
T1 sequence (Q02153 1-619): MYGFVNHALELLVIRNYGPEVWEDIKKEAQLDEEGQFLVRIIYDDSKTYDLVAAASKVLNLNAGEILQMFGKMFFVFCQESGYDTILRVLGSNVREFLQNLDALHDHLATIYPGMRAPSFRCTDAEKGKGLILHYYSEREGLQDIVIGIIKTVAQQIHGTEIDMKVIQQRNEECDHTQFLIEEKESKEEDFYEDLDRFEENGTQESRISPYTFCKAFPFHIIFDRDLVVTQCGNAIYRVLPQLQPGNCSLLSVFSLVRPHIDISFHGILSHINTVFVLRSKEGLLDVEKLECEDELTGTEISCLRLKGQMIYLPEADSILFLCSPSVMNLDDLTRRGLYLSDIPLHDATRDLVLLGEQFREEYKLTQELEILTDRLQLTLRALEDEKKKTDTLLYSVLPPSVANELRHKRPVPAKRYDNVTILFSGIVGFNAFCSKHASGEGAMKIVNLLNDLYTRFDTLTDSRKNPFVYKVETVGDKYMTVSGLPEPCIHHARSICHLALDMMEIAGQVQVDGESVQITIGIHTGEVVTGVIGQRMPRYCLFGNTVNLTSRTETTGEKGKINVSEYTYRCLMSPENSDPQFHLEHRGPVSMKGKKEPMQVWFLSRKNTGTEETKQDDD
Summary of the method: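 cGMP was quantified by HTRF after 1 hr, 37° C exposure of thawed CHO-K1 cells expressing sGC α1/β1 to compound, with or without 1 μM DETA-NO. IBMX (0.5 mM) blocked cGMP breakdown, and DMSO was 2.5% final. Percent of standard Compound A's maximal cGMP was fitted (4P) for inflection point.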

SMILES | Maximum peak decrease of systolic blood pressure (SBP) in SHR, Cat. ([1]; P.O. 3.0 mpk) | Emax (sGC α1/β1 heterodimer) [%] | EC50 (sGC α1/β1 heterodimer) [µM] | Maximum peak decrease of systolic blood pressure (SBP) in SHR, Cat. ([1]; P.O. 1.0 mpk) | Maximum peak decrease of systolic blood pressure (SBP) in SHR, Cat. ([1]; P.O. 0.3 mpk) | Maximum peak decrease of systolic blood pressure (SBP) in SHR, Cat. ([1]; P.O. 2.0 mpk)
CCc1cn2cc(-c3nc(N)c4c(n3)NC(=O)C4(C)c3ccc(F)cc3)nc(CCC(F)(F)C(F)(F)F)c2n1 (stereo not drawn) [Example 159A, 4-amino-2-(2-ethyl-8-(3,3,4,4,4-pentafluorobutyl)imidazo [1,2-a]pyrazin-6-yl)-5-(4-fluorophenyl)-5-methyl-5H-pyrrolo[2,3-d]pyrimidin-6(7H)-one] | A (Category A=SBP in SHRs<20 mmHg) | 103 | 0.552 | – | – | –
CCCc1nc(-c2nc(N)c3c(n2)NC(=O)C3(C)c2ccc(Cl)cn2)cn2ccnc12 (stereo not drawn) [Example 129A, 4-amino-5-(5-chloropyridin-2-yl)-5-methyl-2-(8-propylimidazo[1,2-a]pyrazin-6-yl)-5H-pyrrolo[2,3-d]pyrimidin-6(7H)-one] | – | 94 | 0.107 | B (Category B=SBP in SHRs 20-40 mmHg) | – | –
CC1(c2ccc(F)cc2)C(=O)Nc2nc(-c3cn4c(Br)cnc4c(CCC(F)(F)C(F)(F)F)n3)nc(N)c21 (stereo not drawn) [Example 254A, 4-amino-2-(3-bromo-8-(3,3,4,4,4-pentafluorobutyl)imidazo [1,2-a]pyrazin-6-yl)-5-(4-fluorophenyl)-5-methyl-5H-pyrrolo[2,3-d]pyrimidin-6(7H)-one] | – | 126 | 0.057 | C (Category C=SBP in SHRs>40 mmHg) | – | –
Cc1cnc(C2(C3CC3)C(=O)Nc3nc(-c4cn5ccnc5c(CCC(F)(F)C(F)(F)F)n4)nc(N)c32)cn1 (single isomer, unassigned) [Example 342B, 4-amino-5-cyclopropyl-5-(5-methylpyrazin-2-yl)-2-(8-(3,3,4,4,4-pentafluorobutyl)imidazo[1,2-a]pyrazin-6-yl)-5H-pyrrolo[2,3-d]pyrimidin-6(7H)-one] | – | 177 | 0.695 | A (Category A=SBP in SHRs<20 mmHg) | – | –
CCC1(c2ccc(Cl)cc2)C(=O)Nc2nc(-c3cn4ccnc4c(CCC(F)(F)C(F)(F)F)n3)nc(N)c21 (stereo not drawn) [Example 247B, 4-amino-5-(4-chlorophenyl)-5-ethyl-2-(8-(3,3,4,4,4-pentafluorobutyl)imidazo [1,2-a]pyrazin-6-yl)-5H-pyrrolo[2,3-d]pyrimidin-6(7H)-one] | – | 117 | 0.152 | – | A (Category A=SBP in SHRs<20 mmHg) | –
Nc1nc(-c2cn3ccnc3c(CCC(F)(F)C(F)(F)F)n2)nc2c1C(c1ccc(F)cn1)(C1CC1)C(=O)N2 (stereo not drawn) [Example 223A, 4-amino-5-cyclopropyl-5-(5-fluoropyridin-2-yl)-2-(8-(3,3,4,4,4-pentafluorobutyl)imidazo [1,2-a]pyrazin-6-yl)-5H-pyrrolo[2,3-d]pyrimidin-6(7H)-one] | – | 84 | 0.177 | B (Category B=SBP in SHRs 20-40 mmHg) | – | –
Nc1nc(-c2cn3ccnc3c(CCC(F)(F)F)n2)nc2c1C(c1ccc(F)c(F)c1)(C1CC1)C(=O)N2 (stereo not drawn) [Example 318A, 4-amino-5-cyclopropyl-5-(3,4-difluorophenyl)-2-(8-(3,3,3-trifluoropropyl)imidazo[1,2-a]pyrazin-6-yl)-5H-pyrrolo[2,3-d]pyrimidin-6(7H)-one] | – | 127 | 2.18 | – | – | A (Category A=SBP in SHRs<20 mmHg)
CC(C)Cc1nc(-c2nc(N)c3c(n2)NC(=O)C3(c2ccc(Cl)c(F)c2)C2CC2)cn2ccnc12 (stereo not drawn) [Example 315A, 4-amino-5-(4-chloro-3-fluorophenyl)-5-cyclopropyl-2-(8-isobutylimidazo[1,2-a]pyrazin-6-yl)-5H-pyrrolo[2,3-d]pyrimidin-6(7H)-one] | B (Category B=SBP in SHRs 20-40 mmHg) | 113 | 0.119 | – | – | –
CCOc1ccc(C2(C)C(=O)Nc3nc(-c4cn5ccnc5c(CCC(F)(F)C(F)(F)F)n4)nc(N)c32)cn1 (stereo not drawn) [Example 244B, 4-amino-5-(6-ethoxypyridin-3-yl)-5-methyl-2-(8-(3,3,4,4,4-pentafluorobutyl)imidazo [1,2-a]pyrazin-6-yl)-5H-pyrrolo[2,3-d]pyrimidin-6(7H)-one] | C (Category C=SBP in SHRs>40 mmHg) | 109 | 0.081 | – | – | –
